Measurements taken from patent US20250319025A9, “COMPOSITIONS COMPRISING MODIFIED PHOSPHOLIPIDS AND USES THEREOF” (priority 2021, published 2025).
Where “and” joins values, the source holds several entries; their conditions need not be identical. Identical values can stand only once. Counter-ions that a name gives are not always drawn. Like-named read-outs stand apart in the source and are kept apart here.

Legend:
[1] = Phase transition temperature of acyl chain-modified phospholipids; format: physicochemical
[2] = In vitro cumulative drug release by dialysis at 37° C.; format: physicochemical
[3] = Drug loading of payloads in liposomes (thin-film hydration; quantitated after liposome disruption); format: physicochemical
physchem = settings: pH 4
[4] = system: PC12 rat adrenal gland pheochromocytoma cells
[5] = pH 7.4
[6] = system: sciatic nerves and surrounding tissues; settings: rat, in vivo
sciatic nerve [7] = settings: rat, in vivo
[8] = cited from earlier work
sciatic nerve [9] = assay: Motor nerve block, weight-bearing test; settings: rat, in vivo
Description: Motor nerve block was assessed by a weight-bearing test to determine the motor strength of the rat's hind paw. The rat was positioned with one hind paw on a digital balance and was allowed to bear its own weight. The maximum weight that the rat could bear without the ankle touching the balance was recorded, and motor block was considered achieved when the motor strength was less than half maximal. Measurements were repeated three times at each time point and the median was used for further data analysis.
Duration of sensory block were calculated as the time required for thermal latency to return to 7 seconds (halfway between the baseline and maximal latencies). The duration of motor block was defined as the time it took for the weight-bearing to return to halfway between normal and maximal block.

[10] = first 24 h, Lipo-Ph versus Lipo
[11] = payload from aromatized liposomes, 37° C.
[12] = payload in aromatized liposomes containing Ph-DPPC (Lipo-Ph)

1-palmitoyl-2-(16-coumarin)palmitoyl-sn-glycero-3-phosphocholine [CM-DPPC]
phase transition temperature (Tm) [1]: 66.1 °C

CCCCN1CCCCC1C(=O)Nc1c(C)cccc1C (stereo not shown) [Bup, bupivacaine hydrochloride]
Cumulative release in first 24 h, Lipo [2]: 70.7 ± 1.9% | Decrease in release [2, 10]: 47.7% | Cumulative release in first 24 h, Lipo-Ph [2, 11]: 37.0 ± 2.7% | Drug loading, Lipo [3]: 3.5 ± 0.7% | Increase in loading ([3]; Lipo-Ph versus Lipo): 60.0% | Drug loading, Lipo-Ph [3, 12]: 5.6 ± 0.8% | logP (physchem): -0.27

COc1cccc2c1C(=O)c1c(O)c3c(c(O)c1C2=O)C[C@@](O)(C(=O)CO)C[C@@H]3O[C@H]1C[C@H](N)[C@H](O)[C@H](C)O1 [Dox, doxorubicin hydrochloride]
Cumulative release in first 24 h, Lipo [2]: 26.8 ± 1.1% | Decrease in release [2, 10]: 34.3% | Cumulative release in first 24 h, Lipo-Ph [2, 11]: 17.6 ± 1.0% | Drug loading, Lipo [3]: 0.8 ± 0.1% | Increase in loading ([3]; Lipo-Ph versus Lipo): 30.4% | Drug loading, Lipo-Ph [3, 12]: 1.1 ± 0.1% | logP (physchem): -0.22

CCCCCCCCCCCCCCCC(=O)OC[C@H](COP(=O)([O-])OCC[N+](C)(C)C)OC(=O)CCCCCCCCCCCCCCCOc1ccccc1 [Ph-DPPC, 1-palmitoyl-2-(16-phenoxy)palmitoyl-sn-glycero-3-phosphocholine]
phase transition temperature (Tm) [1]: 47.4 °C

Oc1ccccc1 [Phenol, phenol]
cytotoxicity, C2C12 (C2C12 mouse myoblasts): intrinsically toxic | cytotoxicity, PC12 [4]: intrinsically toxic

CCN(CC)c1ccc2c(-c3ccc(S(=O)(=O)O)cc3S(=O)(=O)[O-])c3ccc(=[N+](CC)CC)cc-3oc2c1 [SRho, sulforhodamine B]
Cumulative release in first 24 h, Lipo [2]: 12.2 ± 0.5% | Decrease in release [2, 10]: 51.6% | Cumulative release in first 24 h, Lipo-Ph [2, 11]: 5.9 ± 0.7% | time within which free dye was released ([2]; unencapsulated SRho in the release set-up): ≤ 6 h | log P (octanol-water partition coefficient) [5]: −0.53 | Drug loading, Lipo [3]: 2.6 ± 0.3% | Increase in loading ([3]; Lipo-Ph versus Lipo): 19.2% | Drug loading, Lipo-Ph [3, 12]: 3.1 ± 0.2%

tetrodotoxin [TTX]
Cumulative release in first 24 h, Lipo [2]: 17.1 ± 0.3% | Cumulative release in first 24 h, Lipo-Ph [2]: 11.3 ± 0.4% | Decrease in release [2]: 34.0% | TTX released after 8 hours [2]: More than 95% | log P (octanol-water partition coefficient) [5]: 0.13 | Inflammation Scores, Day 4 [6]: 0 | Inflammation Scores, Day 14 [6]: 0 (0-0) | Myotoxicity Scores, Day 4 [6]: 0 | Myotoxicity Scores, Day 14 [6]: 0 | Drug loading, Lipo [3]: 0.11 ± 0.01% | Drug loading, Lipo-Ph [3]: 0.13 ± 0.01% | Increase in loading [3]: 25.5% | Duration of nerve block (sciatic nerve [7]): 2.5 ± 0.6 h and 2.5 h | nerve block (sciatic nerve [7]): did not induce detectable nerve block | sensory nerve block (sciatic nerve [7]): no detectable block | Log P [8]: −6.2 | difference between the duration of sensory and motor nerve block (sciatic nerve [9]): no statistically significant difference
